# How the values were obtained:
# [1] = test system: morningglory; assay: Test B pre-/postemergence herbicide test; assay type: in vivo, Ipomoea coccinea; settings: for Morningglory plant response rating: postemergence
# Method in brief: (§1)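 Evaluation is visual, comparing treated with control plants on a scale where 0 means no effect and 100 means full control. Treatments were preemergence, or postemergence on seedlings 2–18 cm tall, and held 13–15 days in the greenhouse.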
# [2] = test system: cocklebur; assay: Test B pre-/postemergence herbicide test; assay type: in vivo, Xanthium strumarium; settings: for Cocklebur plant response rating: postemergence
# Method in brief: as §1
# [3] = test system: barnyardgrass; assay: Test C flooded paddy test; assay type: in vivo, Echinochloa crus-galli
# Method in brief: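 Scoring by eye, 12–14 days post-treatment, greenhouse-held plants vs. controls; 0 no effect, 100 complete control. Sprayed at 1–4 leaves (2–18 cm); paddy barnyardgrass at 2 leaves, flooded.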
# [4] = test system: pigweed; assay: Test B pre-/postemergence herbicide test; assay type: in vivo, Amaranthus retroflexus; settings: for Pigweed plant response rating: postemergence
# Method in brief: (§2)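 Visual rating, 0 (no effect) to 100 (complete control), versus untreated controls after 13–15 d in greenhouse. Pre- and postemergence applications (postemergence plants 2–18 cm, 1–4 leaves); flooded paddy arm at 2-leaf stage. Compounds in non-phytotoxic solvent plus surfactant.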
# [5] = test system: barnyardgrass; assay: Test B flooded paddy test; assay type: in vivo, Echinochloa crus-galli; settings: 1000 g ai/ha, scale 0 to 100 (0 no effect, 100 complete control)
# Method in brief: (§3)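 Each value is a visual 0–100 response rating taken against controls 13 to 15 days after treatment in the greenhouse. Plants received formulated chemical postemergence at the 1- to 4-leaf stage or, in flooded paddy, at the 2-leaf stage.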
# [6] = test system: ducksalad; assay: Test C flooded paddy test; assay type: in vivo, Heteranthera limosa
# [7] = test system: rice; assay: Test B flooded paddy test; assay type: in vivo, Oryza sativa; settings: 1000 g ai/ha, scale 0 to 100 (0 no effect, 100 complete control)
# Method in brief: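 Read-out: visual comparison with controls, scored 0 to 100, where 100 means complete control and 0 no effect. Formulated chemicals were applied postemergence to plants 2–18 cm tall (1- to 4-leaf), or to flooded-paddy plants at the 2-leaf stage, then held 13 to 15 days under glass.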
# [8] = test system: wild oat; assay: Test B postemergence herbicide test; assay type: in vivo, Avena fatua; settings: postemergence
# Method in brief: (§4)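 Scale 0–100: zero equals no visible effect, 100 complete control, judged by eye relative to controls. Timing: 13 to 15 days in greenhouse post-treatment. Growth stage at spraying: two leaves (paddy) or one to four leaves, 2–18 cm (postemergence).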
# [9] = test system: large crabgrass; assay: Test B pre-/postemergence herbicide test; assay type: in vivo, Digitaria sanguinalis; settings: for Crabgrass, Large plant response rating: postemergence
# Method in brief: as §2
# [10] = test system: barnyardgrass; assay: Test B pre-/postemergence herbicide test; assay type: in vivo, Echinochloa crus-galli; settings: for Barnyardgrass plant response rating: postemergence
# Method in brief: as §1
# [11] = test system: giant foxtail; assay: Test B pre-/postemergence herbicide test; assay type: in vivo, Setaria faberi; settings: for Foxtail, Giant plant response rating: postemergence
# Method in brief: as §2
# [12] = test system: blackgrass; assay: Test B postemergence herbicide test; assay type: in vivo, Alopecurus myosuroides; settings: postemergence
# Method in brief: as §3
# [13] = test system: wheat; assay: Test B postemergence herbicide test; assay type: in vivo, Triticum aestivum; design: key to Wheat plant response rating: 0 = no effect, 100 = complete control; settings: postemergence
# Method in brief: as §4
# [14] = test system: Surinam grass; assay: Test B pre-/postemergence herbicide test; assay type: in vivo, Urochloa decumbens; settings: for Surinam Grass plant response rating: postemergence
# Method in brief: as §2
# [15] = test system: rice; assay: Test C flooded paddy test; assay type: in vivo, Oryza sativa
# Method in brief: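 Plants were grown to the 1- to 4-leaf stage (2–18 cm) and then treated postemergence, or grown to the 2-leaf stage for the flooded paddy test. They were held in a greenhouse for 12 to 14 days and then scored by eye against controls, where 0 is no effect and 100 is complete control.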
# [16] = test system: ducksalad; assay: Test B flooded paddy test; assay type: in vivo, Heteranthera limosa; settings: 1000 g ai/ha, scale 0 to 100 (0 no effect, 100 complete control)
# Method in brief: as §3
# [17] = test system: small flower umbrella sedge; assay: Test B flooded paddy test; assay type: in vivo, Cyperus difformis; settings: 1000 g ai/ha, scale 0 to 100 (0 no effect, 100 complete control)
# Method in brief: as §3
# [18] = test system: velvetleaf; assay: Test B pre-/postemergence herbicide test; assay type: in vivo, Abutilon theophrasti; settings: for Velvetleaf plant response rating: postemergence
# Method in brief: as §2
# [19] = test system: lambsquarters; assay: Test B pre-/postemergence herbicide test; assay type: in vivo, Chenopodium album; settings: for Lambsquarters plant response rating: postemergence
# Method in brief: as §2
# [20] = test system: smallflower umbrella sedge; assay: Test C flooded paddy test; assay type: in vivo, Cyperus difformis
# [21] = test system: corn; assay: Test B pre-/postemergence herbicide test; assay type: in vivo, Zea mays; settings: for Corn plant response rating: postemergence
# Method in brief: as §2
# [22] = 125 g ai/ha, 0 is no effect, 100 is complete control, preemergence
# [23] = 125 g ai/ha, visual rating, scale 0 (no effect) to 100 (complete control)
# [24] = 500 g ai/ha, visual rating, 0 = no effect, 100 = complete control, preemergence
# [25] = 500 g ai/ha, scale 0 to 100, 0 is no effect, 100 is complete control
# [26] = 125 g ai/ha, scale 0 to 100 (0 no effect, 100 complete control)
# [27] = 250 g ai/ha, scale of 0 to 100, 0 is no effect, 100 is complete control
# [28] = 500 g ai/ha, visual rating after 12 to 14 days, scale 0 to 100 (0 no effect, 100 complete control)
smiles,measurement,setting,value
CCNC(=S)c1ccc(F)c(NC(=O)c2cc(C(C)(C)C)nn2CC)c1 [Compound 349],"Plant response rating (0 to 100 scale), Morningglory",[1]; [22],0
same,Morningglory plant response rating,[1]; [23],0
same,"Plant response rating, Morningglory",[1]; [24],30
same,Morningglory plant response rating,[1]; [25],50
same,"Plant response rating (0 to 100 scale), Cocklebur",[2]; [22],0
same,Cocklebur plant response rating,[2]; [23],0
same,"Plant response rating, Cocklebur",[2]; [24],80
same,Cocklebur plant response rating,[2]; [25],20
same,Barnyardgrass plant response rating,"[3]; 62 g ai/ha, scale 0 to 100 (0 no effect, 100 complete control)",45
same,Barnyardgrass plant response rating,[3]; [26],70
same,Barnyardgrass plant response rating,[3]; [27],90
same,"Plant response rating, Barnyardgrass",[3]; [28],95
same,"Plant response rating (0 to 100 scale), Pigweed",[4]; [22],100
same,Pigweed plant response rating,[4]; [23],0
same,"Plant response rating, Pigweed",[4]; [24],100
same,Pigweed plant response rating,[4]; [25],70
same,Barnyardgrass plant response rating,[5],80
same,Ducksalad plant response rating,"[6]; 62 g ai/ha, scale 0 to 100",80
same,Ducksalad plant response rating,[6]; [26],85
same,Ducksalad plant response rating,[6]; [27],85
same,"Plant response rating, Ducksalad",[6]; [28],95
same,Rice plant response rating,[7],70
same,"Oat, Wild plant response rating",[8]; [23],10
same,"Oat, Wild plant response rating",[8]; [25],40
same,"Plant response rating (0 to 100 scale), Crabgrass, Large",[9]; [22],100
same,"Crabgrass, Large plant response rating",[9]; [23],20
same,"Plant response rating, Crabgrass, Large",[9]; [24],100
same,"Crabgrass, Large plant response rating",[9]; [25],20
same,"Plant response rating (0 to 100 scale), Barnyardgrass",[10]; [22],80
same,Barnyardgrass plant response rating,[10]; [23],0
same,"Plant response rating, Barnyardgrass",[10]; [24],100
same,Barnyardgrass plant response rating,[10]; [25],10
same,"Plant response rating (0 to 100 scale), Foxtail, Giant",[11]; [22],70
same,"Foxtail, Giant plant response rating",[11]; [23],0
same,"Plant response rating, Foxtail, Giant",[11]; [24],100
same,"Foxtail, Giant plant response rating",[11]; [25],30
same,Blackgrass plant response rating,[12]; [23],20
same,Blackgrass plant response rating,[12]; [25],80
same,Wheat plant response rating,[13]; [23],0
same,Wheat plant response rating,[13]; [25],10
same,"Plant response rating (0 to 100 scale), Surinam Grass",[14]; [22],50
same,Surinam Grass plant response rating,[14]; [23],0
same,"Plant response rating, Surinam Grass",[14]; [24],90
same,Surinam Grass plant response rating,[14]; [25],20
same,Rice plant response rating,"[15]; 62 g ai/ha, scale 0 to 100",50
same,Rice plant response rating,[15]; [26],55
same,Rice plant response rating,[15]; [27],60
same,"Plant response rating, Rice",[15]; [28],70
same,Ducksalad plant response rating,[16],90
same,"Sedge, Umbrella plant response rating",[17],80
same,"Plant response rating (0 to 100 scale), Velvetleaf",[18]; [22],30
same,Velvetleaf plant response rating,[18]; [23],0
same,Velvetleaf plant response rating,[18]; [25],40
same,"Plant response rating (0 to 100 scale), Lambsquarters",[19]; [22],100
same,Lambsquarters plant response rating,[19]; [23],0
same,"Plant response rating, Lambsquarters",[19]; [24],100
same,Lambsquarters plant response rating,[19]; [25],80
same,"Sedge, Umbrella plant response rating","[20]; 62 g ai/ha, scale 0 to 100",80
same,"Sedge, Umbrella plant response rating",[20]; [26],85
same,"Sedge, Umbrella plant response rating",[20]; [27],90
same,"Plant response rating, Sedge, Umbrella",[20]; [28],95
same,"Plant response rating (0 to 100 scale), Corn",[21]; [22],70
same,Corn plant response rating,[21]; [23],0
same,"Plant response rating, Corn",[21]; [24],80
same,Corn plant response rating,[21]; [25],10
